# Reference: article PMC4721142, “Randomized controlled studies on the efficacy of antiarthritic agents in inhibiting cartilage degeneration and pain associated with progression of osteoarthritis in the rat” (Arthritis Research & Therapy, 2016)
# Several values for one entry are separate records, joined by “and”; a condition that tells them apart may be missing. Identical values can stand only once.
# Legend:
# [1] = system: MMP-13; assay: MMP-13 ELISA on supernatants of TNF-α-treated chondrogenic pellets; type: cell-based, human
# [2] = Comparison of in vitro screens: overlapping effective and nontoxic range; settings: for Overlapping effective and nontoxic range: inhibits with minimal or no toxicity to synovium or cartilage, overlapping range if effective in more than one assay;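 on all read-outs here: compares non-toxic ranges in synovial cells and chondrocytes with effective ranges against NFkB, MMP-13 and osteoclasts, giving their overlap as the predicted efficacy range in uM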
# [3] = system: NF-κB; settings: cited from earlier work
# [4] = system: RAW 264.7 cells; assay: RANKL-mediated osteoclastogenesis / matrix resorption (Osteologic) assay; type: cell-based, murine
# Experimental: RAW 264.7 cells (American Type Culture Collection [ATCC], Manassas, VA, USA), a murine monocytic cell line that differentiates in the presence of RANKL, was used for measurements of osteoclastogenesis and osteoclast activity. Cells were amplified on nonadherent culture substratum in high-glucose Dulbecco’s modified Eagle’s medium (DMEM) containing 10 % fetal bovine serum (FBS) and penicillin-streptomycin in a 37 °C, 5 % CO2, humidified incubator and were passaged by manual dissociation. […] Plates were subsequently rinsed, bleached, dried, and analyzed for matrix degradation using a Nikon COOLSCOPE (Nikon Instruments, Melville, NY, USA). Matrix resorption was quantified using EclipseNet (Nikon Instruments)/Visiopharm (Visiopharm, Hørsholm, Denmark) software (see Additional file 1).
# In Vitro Osteoclastogenesis
# Osteoclastogenic activity was measured using BD osteologic plates and quantitation of the degree of bone matrix digestion on the plate surface. Images from the BD Osteologic assay used to […]
# left pane depicts an example of a control well after removal of cells from matrix. Pseudocoloring of matrix (blue) and pits (green) is shown in the far right pane. A transparent overlay of the two images is shown in the center.
# Figure 5 - Measurement of drug effects on osteoclastogenesis and osteoclast activity.
# Comparisons were made between RANKL treated control wells and wells treated with both RANKL and […]
# Agents were initially tested either during differentiation or post differentiation in the bone assay […]
# (e.g., Figure 2, Sulfazalazine). […]
# indicated (*/**: p < 0.05/0.01, unpaired t-test versus RANKL control). […]
# [5] = system: NF-κB; assay: TNF-α-stimulated NF-κB dual luciferase reporter assay in HeLa cells; type: cell-based
# Experimental: NF-κB activity was assessed using a previously described dual plasmid reporter system. HeLa cells were transfected with NF-κB luciferase (Stratagene Products Division, Agilent Technologies, La Jolla, CA, USA) and pRLuc-N3 (PerkinElmer, Waltham, MA, USA) at an 8:1 ratio, respectively, in triplicate. […] NF-κB activity was measured 5 h later with a Dual-Glo Luciferase Assay (Promega, Madison, WI, USA) and an Omni plate reader (BMG Labtech, Cary, NC, USA). The ratio of firefly luciferase luminescence (NF-κB reporter) to Renilla luciferase luminescence (control) was normalized for the number of viable transfected cells. Data are reported as a ratio of activity of viable treated cells over the activity of cells not exposed to TNF-α or drug (fold stimulation above basal untreated levels of activity). The viability of HeLa cells with and without drug was also measured using a CellTiter-Glo luminescent viability assay (Promega). […]
# NF-κB activity was assessed in HeLa cells that were transiently transfected with two reporter constructs as described in the manuscript. Agents were tested for their ability to block TNF- […]
# Expression of the luciferase from the Renilla construct was used as a measure of viability, which was confirmed with a cytotoxicity assay (see later section).
# [6] = system: Normal human articular chondrocytes; assay: Cytotoxicity to chondrogenic pellets (CellTiter-Blue)
# Experimental: Differentiated chondrogenic pellets were used both to test the ability of drugs to block MMP-13 activity and to test for drug toxicity. […] Supernatants were collected and analyzed for MMP-13 using an enzyme-linked immunosorbent assay (GE Healthcare Life Sciences, Little Chalfont, UK). Cytotoxicity to pellets was assessed using CellTiter-Blue (Promega).
# [7] = system: HeLa cells; assay: HeLa cell viability (CellTiter-Glo)
# Experimental: NF-κB activity was assessed using a previously described dual plasmid reporter system. HeLa cells were transfected with NF-κB luciferase (Stratagene Products Division, Agilent Technologies, La Jolla, CA, USA) and pRLuc-N3 (PerkinElmer, Waltham, MA, USA) at an 8:1 ratio, respectively, in triplicate. […] NF-κB activity was measured 5 h later with a Dual-Glo Luciferase Assay (Promega, Madison, WI, USA) and an Omni plate reader (BMG Labtech, Cary, NC, USA). The ratio of firefly luciferase luminescence (NF-κB reporter) to Renilla luciferase luminescence (control) was normalized for the number of viable transfected cells. Data are reported as a ratio of activity of viable treated cells over the activity of cells not exposed to TNF-α or drug (fold stimulation above basal untreated levels of activity). The viability of HeLa cells with and without drug was also measured using a CellTiter-Glo luminescent viability assay (Promega).
# In Vitro Hela Cell Drug Toxicity Testing
# Potential drug toxicity was measured using a CTG assay and HeLa cells (Promega). Drugs not tested in
# this assay were tested in either of the in vitro toxicity assays already presented (synovial or chondrocyte
# Table 3- Drug toxicity measured using a CTG assay and HeLa cells.
# [8] = system: SW982; assay: Synovial toxicity (CellTiter-Glo), with or without TNF-α
# Experimental: Viability was measured with the CellTiter-Glo luminescent viability assay (Promega). […] To more accurately predict the effects of the drugs on osteoarthritic synovium, cells were tested with or without TNF-α (20 ng/ml; BioSource).
# In Vitro Toxicity Testing with a Synovial Cell Line
# Compounds were tested for synovial toxicity using SW982 cells alone or in the presence of TNF as
# [9] = system: IKK-2; settings: reported; cited from earlier work
# [10] = system: MIA rat model of OA; assay: MIA trial 1 weight bearing (daily s.c. clonidine 0.1, fluocinolone 0.002, morphine 6 mg/kg); type: in vivo
# Experimental: (§1) Weight bearing (WB; incapacitance) was measured five times per day, once per week, using a Linton incapacitance meter (Stoelting Co., Wood Dale, IL, USA). Rats were acclimated to the meter before study initiation, and, similarly, immediately before WB, the animals were placed in the meter and allowed to acclimate for 2–5 minutes. Each hind paw was placed on a separate force plate so that the force exerted by each side could be averaged over a 5-second interval, and the mean of three readings was taken for each data point. Right paw force was compared with that on the left side for each group to confirm that animals were displaying incapacitance and/or pain behavior. Differences in force (left minus right) and right paw force as a percentage of the total force exerted by both paws were determined and compared between groups.
# Following isoflurane anesthesia, 50 μl (2 mg) of MIA was injected into the synovial space of the left knee. Animals were randomly assigned to groups, and pain behavior was assessed 7, 14, 21, and 28 days following MIA injection and intervention using WB with the Stoelting incapacitance meter (trial 1) or the dRS test (trials 2 and 3). […] Animals received MIA treatment and then saline control or therapeutic. […] Histopathology was performed at each time point and at study termination. All studies were conducted in accordance with the International Association for the Study of Pain Guidelines and were approved by the Algos Therapeutics, Inc. Institutional Animal Care and Use Committee (IACUC) before initiation. Those running the studies were blind to the treatments. See Additional file 1 for further details. […]
# dosing were housed three per cage. Animals had free access to food and water and were maintained […]
# The animal colony was maintained at approximately 21 °C. All experiments were conducted in accordance with the International Association for the Study of Pain Guidelines.
# [11] = system: MMT/MCLT rat model of OA; assay: MMT/MCLT trial 1 weight bearing (daily morphine 10 mg/kg, tacrolimus 0.3 or 0.6 mg/kg, fluocinolone 5 or 10 μg/kg, clonidine 100 μg/kg, alendronate 10 μg/kg i.p.; curcumin, withaferin 50 mg/kg p.o.); type: in vivo; settings: low or only dose
# Experimental: as §1
# Following isoflurane anesthesia, the medial collateral ligament was transected just below its attachment to the meniscus in the right knee. The meniscus was cut at its narrowest point away from the ossicles so as not to damage the tibial surface and to ensure that the anterior and posterior meniscus halves were freely movable. […] In trial 2, drugs were administered IA weekly beginning 1 week following surgery. Three weeks postsurgery, animals were humanely killed and their right knees were collected for histopathology. All studies were conducted in accordance with the International Association for the Study of Pain Guidelines and were approved by the Bolder BioPATH IACUC (Boulder, CO, USA) in compliance with regulations before study initiation (IACUC protocol BBP03-006). Those running the studies were blinded to the treatments. See Additional file 1 for further details.
# Isoflurane and the right knee area prepared for surgery. A skin incision was made over the medial aspect of the knee and the medial collateral ligament was exposed by blunt dissection and then transected. The medial meniscus was cut through the full thickness to simulate a complete tear and the skin was then closed with suture.
# All pharmaceutical agents were prepared and stored as recommended by the supplier. Daily drug preparations were made fresh from stock solutions. […]
# In Trial 2 drugs were […]
# administered IA weekly beginning one week following surgery. […]
# were delivered by gavage and were prepared in 0.3% Methyl Cellulose.
# WB was measured five times a day, once a week, using a Linton incapacitance meter (Stoelting Co.) to assess pain behavior. Rats were acclimated to the incapacitance meter prior to study initiation.
# Similarly, immediately prior to WB animals were placed in the incapacitance meter and allowed to acclimate for 2-5 minutes. Each hind paw was placed on a separate force plate so that the force exerted by each side could be averaged over a 5 second interval and the mean of three readings taken for each data point. Right paw force was compared to left for each group to confirm that animals were displaying incapacitance / pain behavior. Difference in force (left minus right) and right paw force as a percentage of the total force exerted by both paws were determined and compared between groups. Three weeks after surgery, animals were humanely euthanized and right knees collected for histopathology evaluation.
# Figure 2. MMT/MCLT Trial Timeline […]
# MMT/MCLT Dosing (once/day)
# The study design and animal usage was approved by Bolder BioPATH’s Institutional Animal Care and Use Committee (IACUC) for compliance with regulations prior to study initiation (IACUC […]
# Labs. Animals were identified by a distinct mark at the base of the tail delineating group and animal number. After randomization, all cages were labeled with protocol number, group numbers, and animal numbers with appropriate color-coding (see protocol).
# [12] = system: MMT/MCLT rat model of OA; assay: MMT/MCLT trial 1 histopathology (same doses); type: in vivo; settings: low or only dose
# Description: For MMT/MCLT rat knee joints, sections were cut in 200-μm steps; stained with toluidine blue (also with a right and left half per section); and similarly analyzed for cartilage degeneration, proteoglycan loss, collagen damage, and osteophyte formation. Results were averaged across the three sections for an overall semiquantitative score. Regional differences across the tibial plateau were taken into consideration by dividing each section into three zones delineated using an ocular micrometer (outside, middle, and inside). Scores were based on the percentage of area affected within the zone.
# Cartilage degeneration in the tibia was scored on a 5-point scale as detailed in the Methods section of Additional file 1. The total extent of degeneration of the tibial plateau was measured (in micrometers) and included an analysis of cell loss, proteoglycan loss, and collagen damage. Significant cartilage degeneration reflecting any degeneration extending through more than 50 % of the cartilage thickness was also measured. Collagen damage across the medial tibial plateau (the most severely affected section of the two halves) was also quantified.
# Osteophytes and femoral cartilage degeneration were analyzed as detailed in Additional file 1. Scoring of the osteophytes and categorization into small, medium, and large was performed using an ocular micrometer. The actual osteophyte measurement (tidemark to farthest distance point extending toward the synovium) was also recorded. The femoral cartilage degeneration score and the three-zone sum of the tibial cartilage degeneration scores (mean of three levels) were summed to create a total cartilage degeneration score. The mean osteophyte score for each joint was added to this value to create a total joint score. […]
# Histopathology MMT/MCLT Model
smiles,measurement,setting,value
"O=C1C(=Cc2ccccc2F)CNCC1=Cc1ccccc1F [Curcumin-14, 3,5-bis(2-flurobenzylidene)piperidin-4-one]",Effective range against MMP-13,[1],≥ 0.625 µM
same,Non-toxic & predicted range of efficacy,[2],2.5 to 10 µM
same,Overlapping effective and nontoxic range,[2],2.5 to 10 µM
same,times more potent than curcumin,[3]; reportedly,"Reportedly 10 times more potent than curcumin Inhibits NF-κB by inhibiting IκB kinase (IKK) [82] Potent anticarcinogenic activity inducing death of lung, breast, ovarian, and cervical cancer cells [82]"
same,Effective range against Osteoclasts,[4],Not effective
same,Effective range against NFkB,[5],≥ 2.5 µM
"NC(=O)Nc1sc(-c2ccccc2)cc1C(N)=O [IKK inhibitor VI, (5-Phenyl-2-ureido)thiophene-3-carboxamide]",Effective range against MMP-13,[1],≥ 0.24 µM
same,Non-toxic & predicted range of efficacy,[2],0.95 to 4.0 µM
same,Overlapping effective and nontoxic range,[2],0.24 to 15.2 µM
same,Effective range against Osteoclasts,[4],≥ 0.5 µM
same,Effective against NF κβ (p<0.05),[5],0.23 to 15.3 µM
same,Effective range against NFkB,[5],≥ 0.95 µM
same,Non-toxic range (Chondrocyte),[6],0.23 to 15.6 µM
same,Non-toxic concentrations,[7],0 to 0.9 M
same,Toxic concentrations (p<0.05),[7],1.9 to 3.83 µM
same,Non-toxic range (Synovial),[8],0.028 to 0.25 µM
same,IC50,[9],0.013 to 0.018 µM
CN1CC[C@]23c4c5ccc(O)c4O[C@H]2[C@@H](O)C=C[C@H]3[C@H]1C5 [Morphine],"Weight bearing, hours after dosing with significant difference",[10]; day 14,1 h
same,"Weight bearing, hours after dosing with significant difference","[10]; day 21, BL baseline","BL, 1, 3"
same,"Weight bearing, hours with significant effect",[11]; day 7,1 h
same,"Weight bearing, hours with significant effect",[11]; day 21,"3,5 h"
same,Bone score,[12]; mean,3.63
same,"Depth ratio any matrix change, mean",[12]; mean,0.34
same,"Depth ratio any matrix change, zone 2",[12]; mean,0.11
same,Femoral cartilage degeneration score,[12]; mean,2.33 and 2.33 ± 0.66
same,"Tibial cartilage degeneration score, 3-zone total",[12]; mean,6.21
same,"Tibial cartilage degeneration score, zone 1",[12]; mean,4.25
same,"Tibial cartilage degeneration score, zone 2",[12]; mean,1.92
same,"Tibial cartilage degeneration score, zone 3",[12]; mean,0.04
same,"Tibial cartilage degeneration width, significant",[12]; mean,666.67 µm
same,"Tibial cartilage degeneration width, total",[12]; mean,1279.17 µm
same,Tibial osteophyte measure,[12]; mean,573.75 µm
same,Tibial osteophyte score,[12]; mean,4.42
same,Total joint score,[12]; mean,12.96 and 12.96 ± 0.89
same,Total joint score w/o femur,[12]; mean,10.63
same,"% decrease, bone score",[12]; vs saline group,-12%
same,"% decrease, depth ratio mean",[12]; vs saline group,5%
same,"% decrease, depth ratio zone 2",[12]; vs saline group,42%
same,"% decrease, femoral cartilage degeneration score",[12]; vs saline group,-27%
same,"% decrease, osteophyte measure",[12]; vs saline group,-12%
same,"% decrease, osteophyte score",[12]; vs saline group,-13%
same,"% decrease, significant degeneration width",[12]; vs saline group,8%
same,"% decrease, tibial score 3-zone total",[12]; vs saline group,5%
same,"% decrease, tibial score zone 1",[12]; vs saline group,1%
same,"% decrease, tibial score zone 2",[12]; vs saline group,13%
same,"% decrease, tibial score zone 3",[12]; vs saline group,0%
same,"% decrease, total degeneration width",[12]; vs saline group,3%
same,"% decrease, total joint score",[12]; vs saline group,-5%
same,"% decrease, total joint score w/o femur",[12]; vs saline group,-2%
"COc1ccc(/C=C/c2ccccc2F)cc1 [NF-κB activation inhibitor IV, (E)-2-fluoro-4′-methoxystilbene]",fold more potent than resveratrol at inhibiting NF-κB,[3],Experimentally used as an anti-inflammatory but not an antioxidant 130-fold more potent than resveratrol at inhibiting NF-κB [94]
